Laboratory results reported in publication PMC4393105, “tRNA^Glu Increases the Affinity of Glutamyl-tRNA Synthetase for Its Inhibitor Glutamyl-Sulfamoyl-Adenosine, an Analogue of the Aminoacylation Reaction Intermediate Glutamyl-AMP: Mechanistic and Evolutionary Implications” (PLoS ONE, 2015).
Values joined by “and” are separate entries in the source; they are usually repeats but may differ in a detail not shown here. Identical values can stand only once.

Experiments:
[1] = test system: murine hepatic GluRS; design: method as in PMID 15895686; conditions: cited from earlier work
[2] = biological target: T1, E. coli GluRS + S. cerevisiae tRNA^Phe (Escherichia coli, UniProt P04805); assay: Isothermal titration microcalorimetry of Glu-AMS binding to GluRS in the presence of non-cognate tRNA^Phe; conditions: for Kd: Kd (dissociation constant), Kd = 1/Kb
T1 construct: His tag (histidine tag) (C); made in house
T1 sequence (P04805 whole entry): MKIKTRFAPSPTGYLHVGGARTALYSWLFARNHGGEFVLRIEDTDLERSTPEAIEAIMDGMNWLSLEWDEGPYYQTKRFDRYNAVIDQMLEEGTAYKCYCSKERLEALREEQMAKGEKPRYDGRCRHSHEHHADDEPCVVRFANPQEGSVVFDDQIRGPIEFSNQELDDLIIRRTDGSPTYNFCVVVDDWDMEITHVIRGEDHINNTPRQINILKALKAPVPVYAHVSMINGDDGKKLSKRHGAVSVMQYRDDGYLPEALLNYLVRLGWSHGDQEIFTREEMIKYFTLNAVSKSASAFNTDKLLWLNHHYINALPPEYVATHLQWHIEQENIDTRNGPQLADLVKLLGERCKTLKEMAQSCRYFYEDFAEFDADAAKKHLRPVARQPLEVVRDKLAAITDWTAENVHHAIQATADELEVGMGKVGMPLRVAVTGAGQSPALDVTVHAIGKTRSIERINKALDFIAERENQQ
Procedure: (§1) Overproduction and purification of E. coli GluRS were performed as previously described with the following modifications. A C-terminal histidine-tagged GluRS was used instead of the N-terminal tagged one. The overproduction was induced overnight at 30°C with 1 mM IPTG.
(§2) Overproduction and purification of E. coli tRNA^Glu-enriched total tRNA was done as described. […] Saccharomyces cerevisiae tRNA^Phe, used as a negative control, was purchased from Sigma-Aldrich (cat No: R4018).
(§3) The GluRS solution with or without tRNA was dialyzed overnight in a D-tube dialyzer (Novagen) against 2 L of dialysis buffer (50 mM HEPES-KOH, pH 7.2, 10 mM MgCl2) at 4°C with light stirring. The next morning, the dialyzed solution was recovered and the volume adjusted by adding dialysis buffer to obtain the desired concentration (typically 9 μM GluRS and 11 μM tRNA^Glu). This solution was kept on ice until use. Glu-AMS was diluted in the dialysis buffer to obtain a final concentration of 90 μM. All buffers and solutions were degased with stirring under vacuum. The microcalorimetry experiments were carried out in a VP-ITC 100 microcalorimeter (MicroCal, GE Healthcare) using deionized water as an internal reference for all assays. VPViewer ITC 2000 and Origin v 5.0 softwares (Microcal Software, Inc) were used for data collection and analysis, respectively.
To measure the thermodynamic parameters of the interaction between Glu-AMS and GluRS, in the presence and in the absence of tRNA, a solution containing 9 μM GluRS with or without a stoichiometric excess of tRNA^Glu or S. cerevisiae tRNA^Phe (Table 1) was placed in the sample cell of the microcalorimeter. The following conditions were used for all tests: reference power was set at 12 μcal/s and stirring at 300 rpm, the “high” feedback mode and “No check Temp”, “Fast Equil” and “Auto” ITC equilibration options were selected. The 90 μM Glu-AMS solution was loaded in the injection syringe. After a first injection of 1 μL over 2 s, a series of 39 injections (7.4 μL over 14.8 s) with 240 s between injections was performed. Injections of Glu-AMS in GluRS alone, GluRS•tRNA^Glu or GluRS•tRNA^Phe, were performed at 30°C (303 K), and done in duplicate. Injections of Glu-AMS in GluRS were also performed at 20°C and 37°C (293 and 310 K): 14 injections (20 μL over 40 s) followed the first injection of 1 μL. Each temperature was tested in duplicate, and in triplicate at 37°C.
(§4) The following nomenclature was used to describe the interaction at equilibrium between Glu-AMS and either GluRS or a GluRS•tRNA complex: GluRS•Glu-AMS↔GluRS+[…] Kd=[GluRS]×[Glu-AMS]/[GluRS•Glu-AMS] 1/Kd=Kb (binding constant, sometimes referred to as Ka).

[3] = biological target: T2, E. coli GluRS + E. coli tRNA^Glu (Escherichia coli, UniProt P04805); assay: Isothermal titration microcalorimetry of Glu-AMS binding to GluRS in the presence of tRNA^Glu; conditions: for Kd: Kd = 1/Kb
T2 construct: His tag (histidine tag) (C); made in house
T2 sequence (P04805 whole entry): as above
Procedure: as §1, §2, §3
To measure the thermodynamic parameters of the interaction between Glu-AMS and GluRS, in the presence and in the absence of tRNA, a solution containing 9 μM GluRS with or without a stoichiometric excess of tRNA^Glu or S. cerevisiae tRNA^Phe (Table 1) was placed in the sample cell of the microcalorimeter. The following conditions were used for all tests: reference power was set at 12 μcal/s and stirring at 300 rpm, the “high” feedback mode and “No check Temp”, “Fast Equil” and “Auto” ITC equilibration options were selected. […] After a first injection of 1 μL over 2 s, a series of 39 injections (7.4 μL over 14.8 s) with 240 s between injections was performed. Injections of Glu-AMS in GluRS alone, GluRS•tRNA^Glu or GluRS•tRNA^Phe, were performed at 30°C (303 K), and done in duplicate. Injections of Glu-AMS in GluRS were also performed at 20°C and 37°C (293 and 310 K): 14 injections (20 μL over 40 s) followed the first injection of 1 μL. Each temperature was tested in duplicate, and in triplicate at 37°C.
as §4

[4] = test system: Escherichia coli glutamyl-tRNA synthetase (GluRS); design: method as in PMID 15895686; conditions: competitive inhibitor; cited from earlier work
[5] = single ITC run, tRNA^Phe 11.23 µM, 303 K, [ligand] 90 µM, [GluRS] 2.198 µM
[6] = single ITC run, tRNA^Phe 11.23 µM, 303 K, [ligand] 90 µM, [GluRS] 2.434 µM
[7] = with S. cerevisiae tRNA^Phe, 30°C, weighted mean of ITC runs
[8] = single ITC run, tRNA^Glu 5.3 µM, 303 K, [ligand] 45 µM, [GluRS] 2.636 µM
[9] = single ITC run, tRNA^Glu 10.6 µM, 303 K, [ligand] 90 µM, [GluRS] 5.792 µM
[10] = with E. coli tRNA^Glu, 30°C, weighted mean of ITC runs

Nc1ncnc2c1ncn2[C@@H]1O[C@H](COS(=O)(=O)NC(=O)[C@@H](N)CCC(=O)O)[C@@H](O)[C@H]1O [Glu-AMS, 5’-O-[N-(L-glutamyl)sulfamoyl]adenosine]
times less efficient against murine hepatic GluRS than against E. coli GluRS [1]: 25 times
Kd [2, 5]: 478 ± 86 nM
Kd [2, 6]: 987 ± 190 nM
-TΔSb [2, 5]: -3875 ± 242
n (stoichiometry coefficient) [2, 5]: 0.9925 ± 0.048
ΔGb (reaction energy) [2, 5]: -8.762 kcal/mol
ΔHb (reaction enthalpy) [2, 5]: -4.882 ± 0.305 kcal/mol
ΔSb (reaction entropy) [2, 5]: 12.79 ± 0.80 cal/mol·K
-TΔSb [2, 6]: -1658 ± 172
n (stoichiometry coefficient) [2, 6]: 0.9835 ± 0.0809
ΔGb (reaction energy) [2, 6]: -8.326 kcal/mol
ΔHb (reaction enthalpy) [2, 6]: -6.657 ± 0.689 kcal/mol
ΔSb (reaction entropy) [2, 6]: 5.472 ± 0.57 cal/mol·K
affinity of GluRS for Glu-AMS in the presence of the non-cognate tRNA^Phe ([2]; versus absence of tRNA): not altered
ΔGb (reaction energy) ([2]; with S. cerevisiae tRNA^Phe, 30°C, simple average, ΔGb = -RT Ln Kb): -8.544 ± 0.309 kcal/mol
-TΔSb [2, 7]: -2.398 ± 0.14 kcal/mol
n (stoichiometry coefficient) [2, 7]: 0.9902 ± 0.0410
ΔHb (reaction enthalpy) [2, 7]: -5.173 ± 0.279 kcal/mol
ΔSb (reaction entropy) [2, 7]: 7.92 ± 0.46 cal/mol·K
Kd ([3]; K d aa-AMP aaRS, in the presence of tRNA^Glu): 7 nM
Kd ([3]; Kd (dissociation constant), single ITC run, tRNA^Glu 5.3 µM, 303 K, [ligand] 45 µM, [GluRS] 2.636 µM): 5.49 ± 1.35 nM
Kd ([3]; Kd (dissociation constant), single ITC run, tRNA^Glu 10.6 µM, 303 K, [ligand] 90 µM, [GluRS] 5.792 µM): 8.96 ± 2.26 nM
-TΔSb [3, 8]: -2908 ± 33
n (stoichiometry coefficient) [3, 8]: 1.004 ± 0.006
ΔGb (reaction energy) [3, 8]: -11.452 kcal/mol
ΔHb (reaction enthalpy) [3, 8]: -8.537 ± 0.097 kcal/mol
ΔSb (reaction entropy) [3, 8]: 9.596 ± 0.11 cal/mol·K
-TΔSb [3, 9]: -3548 ± 38
n (stoichiometry coefficient) [3, 9]: 1.000 ± 0.006
ΔGb (reaction energy) [3, 9]: -11.156 kcal/mol
ΔHb (reaction enthalpy) [3, 9]: -7.61 ± 0.081 kcal/mol
ΔSb (reaction entropy) [3, 9]: 11.71 ± 0.12 cal/mol·K
-TΔSb [3, 10]: -3.186 ± 0.025 kcal/mol
n (stoichiometry coefficient) [3, 10]: 1.0018 ± 0.0041
ΔHb (reaction enthalpy) [3, 10]: -7.99 ± 0.062 kcal/mol
ΔSb (reaction entropy) [3, 10]: 10.5 cal/mol·K and 10.52 ± 0.08 cal/mol·K
fold decrease of the dissociation constant Kd in the presence of tRNA^Glu ([3]; with versus without tRNA^Glu): 50 fold
free energy of binding difference observed in the presence of tRNA^Glu ([3]; with versus without tRNA^Glu, 30°C): about 2.2 kcal/mol
Ki [4]: 2.8 nM
